Patent US9834521B2, “Choline kinase inhibitors” (ARIAD Pharmaceuticals, Inc., priority 2013, dated 2017)

Molecular target: T1, truncated form of human Choline kinase α1 that includes residues 75-457 (Homo sapiens, UniProt P35790)
T1 construct: made in house
Assay: Kinase Assay, coupled (ATP regeneration) LDH/PK assay, NADH absorbance
Format: biochemical
Details: not given
Method: Absorbance of NADH (340 nm) was measured over 30 min using a SpectraMax M5 (Molecular Devices). Initial reaction velocity (ΔA340/Δt) was calculated and plotted as a function of inhibitor concentration in a 2-fold dilution series. IC50 values were obtained by fitting the relative velocities to a dose-response model.

T1 sequence (P35790 75-457): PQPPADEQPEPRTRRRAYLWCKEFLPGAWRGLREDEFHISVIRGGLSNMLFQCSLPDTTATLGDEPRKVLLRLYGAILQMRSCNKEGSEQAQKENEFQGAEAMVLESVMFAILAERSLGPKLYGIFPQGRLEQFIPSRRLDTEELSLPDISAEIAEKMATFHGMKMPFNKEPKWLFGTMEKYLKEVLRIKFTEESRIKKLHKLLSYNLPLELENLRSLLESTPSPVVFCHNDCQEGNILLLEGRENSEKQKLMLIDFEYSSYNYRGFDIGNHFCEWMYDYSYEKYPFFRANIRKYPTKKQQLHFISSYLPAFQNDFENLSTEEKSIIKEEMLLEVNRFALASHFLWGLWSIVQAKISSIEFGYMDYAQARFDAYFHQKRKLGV

Compound | IC50
CN1CCCN(Cc2ccc(-c3ccc(C(=O)N4CCC(=O)CC4)cc3)c(C#N)c2)CC1 [Example 31, 4-((4-methyl-1,4-diazepan-1-yl)methyl)-4′-(4-oxopiperidine-1-carbonyl)-[1,1′-biphenyl]-2-carbonitrile] | < 2000 nM

Same assay, conditions: Examples designated with an asterisk (*): version 1 of the Kinase Assay, 200 nM enzyme; read-out: IC50

Compound | IC50
CN1CCCN(Cc2ccc(-c3cccc4ccccc34)cc2)CC1 [Example 136, 1-methyl-4-(4-(naphthalen-1-yl)benzyl)-1,4-diazepane] | < 50000 nM
CN1CCCN(Cc2ccc(Cn3cncn3)cc2)CC1 [Example 143, 1-(4-((1H-1,2,4-triazol-1-yl)methyl)benzyl)-4-methyl-1,4-diazepane] | < 50000 nM
COc1ccc(NCc2ccc(CN3CCCN(C)CC3)cc2)cc1 [Example 151, 4-methoxy-N-(4-((4-methyl-1,4-diazepan-1-yl)methyl)benzyl)aniline] | < 50000 nM
CN1CCCN(Cc2ccc(-c3ccc(F)cc3)cc2)CC1 [Example 135, 1-((4′-fluoro-[1,1′-biphenyl]-4-yl)methyl)-4-methyl-1,4-diazepane] | < 50000 nM
CN1CCCN(Cc2ccc(-c3ccc(C(=O)O)cc3)cc2)CC1 [Example 159, 4′-((4-methyl-1,4-diazepan-1-yl)methyl)-[1,1′-biphenyl]-4-carboxylic acid] | < 50000 nM

Same assay, conditions: Examples not designated with an asterisk; footnote prints version 1 of the Kinase Assay; read-out: IC50

Compound | IC50
CN1CCCN(Cc2ccc(-c3ccc(C(=O)N4CCCN(C)CC4)cc3-c3ccc([N+](=O)[O-])cc3)c(C#N)c2)CC1 [Example 73, 4-((4-methyl-1,4-diazepan-1-yl)methyl)-4′-(4-methyl-1,4-diazepane-1-carbonyl)-4″-nitro-[1,1′:2′,1″-terphenyl]-2-carbonitrile] | < 500 nM
Cc1cc(C#N)ccc1-c1ccc(CN2CCCN(C)CC2)cc1C#N [Example 121, 2′-methyl-4-((4-methyl-1,4-diazepan-1-yl)methyl)-[1,1′-biphenyl]-2,4′-dicarbonitrile] | < 2000 nM
CN1CCCN(Cc2ccc(-c3ccc(CN4CCCN(C)CC4)cc3CNC=O)cc2)CC1 [Example 53, N-((4,4′-bis((4-methyl-1,4-diazepan-1-yl)methyl)-[1,1′-biphenyl]-2-yl)methyl)formamide] | < 500 nM
CC(=O)N1CCN(c2ccc(-c3ccc(CN4CCCN(C)CC4)cc3)cn2)CC1 [Example 120, 1-(4-(5-(4-((4-methyl-1,4-diazepan-1-yl)methyl)phenyl)pyridin-2-yl)piperazin-1-yl)ethanone] | < 2000 nM
CN1CCCN(Cc2ccc(-c3ccc(CC(N)C(=O)O)cc3)c(C#N)c2)CC1 (centres unmarked) [Example 100, 2-amino-3-(2′-cyano-4′-((4-methyl-1,4-diazepan-1-yl)methyl)-[1,1′-biphenyl]-4-yl)propanoic acid] | < 500 nM
CC(=O)Nc1cc(-c2ccc(CN3CCCN(C)CC3)cc2C#N)ccc1[N+](=O)[O-] [Example 110, N-(2′-cyano-4′-((4-methyl-1,4-diazepan-1-yl)methyl)-4-nitro-[1,1′-biphenyl]-3-yl)acetamide] | < 500 nM
CN1CCCN(Cc2ccc(-c3cnc(N)nc3)c(C#N)c2)CC1 [Example 119, 2-(2-aminopyrimidin-5-yl)-5-((4-methyl-1,4-diazepan-1-yl)methyl)benzonitrile] | < 2000 nM
CN1CCCN(Cc2ccc(-c3ccc(C(N)=O)cc3)c(C#N)c2)CC1 [Example 28, 2′-cyano-4′-((4-methyl-1,4-diazepan-1-yl)methyl)-[1,1′-biphenyl]-4-carboxamide] | < 500 nM
CN1CCCN(Cc2ccc(-c3ccc(C(=O)N(C)CCO)cc3)c(C#N)c2)CC1 [Example 17, 2′-cyano-N-(2-hydroxyethyl)-N-methyl-4′-((4-methyl-1,4-diazepan-1-yl)methyl)-[1,1′-biphenyl]-4-carboxamide] | < 500 nM
CN1CCCN(Cc2ccc(-c3ccc(CN4CCCCC4)cc3)c(C#N)c2)CC1 [Example 13, 4-((4-methyl-1,4-diazepan-1-yl)methyl)-4′-(piperidin-1-ylmethyl)-[1,1′-biphenyl]-2-carbonitrile] | < 2000 nM
CON(C)C(=O)c1ccc(-c2ccc(CN3CCCN(C)CC3)cc2C#N)cc1 [Example 35, 2′-cyano-N-methoxy-N-methyl-4′-((4-methyl-1,4-diazepan-1-yl)methyl)-[1,1′-biphenyl]-4-carboxamide] | < 500 nM
Cc1cc(C(=O)N2CCCN(C)CC2)ccc1-c1ccc(CN2CCCN(C)CC2)cc1C#N [Example 60, 2′-methyl-4-((4-methyl-1,4-diazepan-1-yl)methyl)-4′-(4-methyl-1,4-diazepane-1-carbonyl)-[1,1′-biphenyl]-2-carbonitrile] | < 2000 nM
CN1CCCN(Cc2ccc(-c3ccc(C(=O)N4CCN(CCO)CC4)cc3)c(C#N)c2)CC1 [Example 18, 4′-(4-(2-hydroxyethyl)piperazine-1-carbonyl)-4-((4-methyl-1,4-diazepan-1-yl)methyl)-[1,1′-biphenyl]-2-carbonitrile] | < 500 nM
CN1CCCN(Cc2ccc(-c3ccc([N+](=O)[O-])cc3)c(C#N)c2)CC1 [Example 106, 4-((4-methyl-1,4-diazepan-1-yl)methyl)-4′-nitro-[1,1′-biphenyl]-2-carbonitrile] | < 500 nM
COC(=O)c1ccc(-c2ccc(CN3CCCN(C)CC3)cc2C#N)c(Br)c1 [Example 156, methyl 2-bromo-2′-cyano-4′-((4-methyl-1,4-diazepan-1-yl)methyl)-[1,1′-biphenyl]-4-carboxylate] | < 2000 nM
CN1CCCN(Cc2ccc(-c3ccc(N)nc3)c(C#N)c2)CC1 [Example 111, 2-(6-aminopyridin-3-yl)-5-((4-methyl-1,4-diazepan-1-yl)methyl)benzonitrile] | < 500 nM

Compound | IC50
CN1CCCN(Cc2ccc(-c3ccc(CC(=O)O)cc3)c(C#N)c2)CC1 [Example 127, 2-(2′-cyano-4′-((4-methyl-1,4-diazepan-1-yl)methyl)-[1,1′-biphenyl]-4-yl)acetic acid] | < 50000 nM
CC(=O)NNC(=O)CCc1ccc(-c2ccc(CN3CCCN(C)CC3)cc2)cc1 [Example 122, N′-acetyl-3-(4′-((4-methyl-1,4-diazepan-1-yl)methyl)-[1,1′-biphenyl]-4-yl)propanehydrazide] | < 2000 nM
CN1CCCN(Cc2ccc(-c3cc[nH]c3)c(C#N)c2)CC1 [Example 117, 5-((4-methyl-1,4-diazepan-1-yl)methyl)-2-(1H-pyrrol-3-yl)benzonitrile] | < 2000 nM
CN1CCCN(Cc2ccc(-c3ccc(C(F)(F)F)cc3CO)cc2)CC1 [Example 131, (4′-((4-methyl-1,4-diazepan-1-yl)methyl)-4-(trifluoromethyl)-[1,1′-biphenyl]-2-yl)methanol] | < 50000 nM
CN1CCCN(Cc2ccc(-c3ccc(C(=O)N4CCCC(O)C4)cc3)c(C#N)c2)CC1 (centres unmarked) [Example 23, 4′-(3-hydroxypiperidine-1-carbonyl)-4-((4-methyl-1,4-diazepan-1-yl)methyl)-[1,1′-biphenyl]-2-carbonitrile] | < 500 nM
CC(=O)N1CC=C(c2ccc(CN3CCCN(C)CC3)cc2C#N)CC1 [Example 103, 2-(1-acetyl-1,2,3,6-tetrahydropyridin-4-yl)-5-((4-methyl-1,4-diazepan-1-yl)methyl)benzonitrile] | < 500 nM
CN1CCCN(Cc2ccc(-c3ccc(C(=O)N4CCC(O)CC4)cc3)c(C#N)c2)CC1 [Example 19, 4′-(4-hydroxypiperidine-1-carbonyl)-4-((4-methyl-1,4-diazepan-1-yl)methyl)-[1,1′-biphenyl]-2-carbonitrile] | < 500 nM
CN1CCCN(Cc2ccc(-c3ccc(C(=O)N4CCCN(C)CC4)cc3)c(F)c2)CC1 [Example 58, (2′-fluoro-4′-((4-methyl-1,4-diazepan-1-yl)methyl)-[1,1′-biphenyl]-4-yl)(4-methyl-1,4-diazepan-1-yl)methanone] | < 500 nM
CN1CCCN(Cc2ccc(-c3ccc(O)cc3)c(C#N)c2)CC1 [Example 107, 4′-hydroxy-4-((4-methyl-1,4-diazepan-1-yl)methyl)-[1,1′-biphenyl]-2-carbonitrile] | < 500 nM
Cc1cc(S(=O)(=O)N(C)C)ccc1-c1ccc(CN2CCCN(C)CC2)cc1C#N [Example 98, 2′-cyano-N,N,2-trimethyl-4′-((4-methyl-1,4-diazepan-1-yl)methyl)-[1,1′-biphenyl]-4-sulfonamide] | < 500 nM
CN1CCCN(Cc2ccc(-c3ccc4ccccc4c3)c(C#N)c2)CC1 [Example 126, 5-((4-methyl-1,4-diazepan-1-yl)methyl)-2-(naphthalen-2-yl)benzonitrile] | < 50000 nM
CN1CCCN(Cc2ccc(-c3ccc(C(=O)N4CCC(O)C4)cc3)c(C#N)c2)CC1 (centres unmarked) [Example 25, 4′-(3-hydroxypyrrolidine-1-carbonyl)-4-((4-methyl-1,4-diazepan-1-yl)methyl)-[1,1′-biphenyl]-2-carbonitrile] | < 500 nM
CN1CCCN(Cc2ccc(-c3cncc(N)c3)c(C#N)c2)CC1 [Example 124, 2-(5-aminopyridin-3-yl)-5-((4-methyl-1,4-diazepan-1-yl)methyl)benzonitrile] | < 50000 nM
CC(=O)NS(=O)(=O)c1ccc(-c2ccc(CN3CCCN(C)CC3)cc2C#N)cc1 [Example 109, N-((2′-cyano-4′-((4-methyl-1,4-diazepan-1-yl)methyl)-[1,1′-biphenyl]-4-yl)sulfonyl)acetamide] | < 500 nM
CN1CCCN(Cc2ccc(-c3ccc(C(=O)N4CCN(C)CC4)cc3)c(C#N)c2)CC1 [Example 24, 4-((4-methyl-1,4-diazepan-1-yl)methyl)-4′-(4-methylpiperazine-1-carbonyl)-[1,1′-biphenyl]-2-carbonitrile] | < 500 nM
CN1CCCN(Cc2ccc(-c3ccc(CNCCNC(=O)OC(C)(C)C)cc3)c(C#N)c2)CC1 [Example 10, tert-butyl(2-(((2′-cyano-4′-((4-methyl-1,4-diazepan-1-yl)methyl)-[1,1′-biphenyl]-4-yl)methyl)amino)ethyl)carbamate] | < 500 nM
